Data taken from US20040110177A1, “Method for identifying functional nucleic acids” (priority 2003, published 2004).

Experiments:
Assay type in all cases: cell-based, human
Hela S3 = assay: Anti-Fas (CH-11) induced apoptosis with kinase inhibitors, FACS sub-G1 nuclei, Hela S3; details: Hela S3, 100 ng/ml CH-11, no FCS; SU 5402 10 μM, AG 1295 1 μM, SB 203580 10 μM
Procedure: (§1) Cells were grown in Ham's F12 medium without FCS and treated with 100 ng/ml anti-Fas antibody CH-11 with and without inhibitors. Apoptosis was measured by FACS analysis as described in the examples. SU 5402: 10 μM, AG 1295: 1 μM, SB 203580: 10 μM, PD 98059: 25 μM.
(§2) 50000 cells per well obtained from the parental cell line Hela S3 or from the clones, respectively, were grown in a 12 well cell culture dish for 2 days in 2 ml Ham's F12 medium containing 10% FCS. On the third day the cells were washed twice with 1 ml Ham's F12 medium and then the medium exchanged against 1 ml Ham's F12 medium. On the next day the medium was supplemented with the respective inhibitors and 100 to 200 ng/ml CH-11. On the next day the medium was decanted and transferred to an Eppendorf tube. The cells were washed once with 200 μl PBS, the PBS was transferred to the respective Eppendorf tube. Then the remaining cells were also transferred to the respective Eppendorf tube after treatment with EDTA/trypsin in PBS. The cells were pelleted by centrifugation, suspended in 500 μl hypotonic buffer (0.1% sodium citrate, 0.1% Triton-X100, 20 μg/ml propidium iodide) and incubated for 2-24 hours at 4° C. The resutling cell nuclei were analyzed by FACS.
(§3) The propidium iodide fluorescence of single nuclei was determined using a FACSCalibur (Becton Dickinson) cytometer. The forward scatter light (FSC) and the side scatter light (SSC) were recorded simultaneously. The FSC peak was adjusted at channel 500 in a 1024 channel linear scale and the red fluorescence peak at channel 200 of a logarithmic scale. The FSC cut-off value was determined by gating to 95% of the greatest nuclei of a negative control without supplements. Nuclei were classified as apoptotic when a subdiploid signal between the G1/G0 peak and channel 10 was present.

[1] = tested on: clone 14 (apoptosis-resistant Hela S3 clone); assay: Anti-Fas (CH-11) induced apoptosis with kinase inhibitors, FACS sub-G1 nuclei, clone 14; details: clone 14, 100 ng/ml CH-11, no FCS; for change in number of apoptotic cells / apoptosis rate (in words): AG 1295 1 μM, PD 98059 25 μM; for increase in apoptosis: SU 5402 10 μM, SB 203580 10 μM
Procedure: as §1
The cervix carcinoma cell line Hela S3 (ATCC CCL-2.2) was plated on 10 cm cell culture dishes (10^5 cells) in Ham's F12 growth medium containing 10% FCS. On the next day the medium was exchanged against medium without FCS supplemented with 100 ng/ml apoptosis activating anti-Fas antibody CH-11 (Coulter Immunotech). After 3 days when most of the cells were dead, the medium was exchanged once more against the medium containing 10% FCS without antibody. The surviving cells were clonally cultivated for 3 weeks. The clones were picked and expanded.
as §2, §3

[2] = tested on: clone 5 (apoptosis-resistant Hela S3 clone); assay: Anti-Fas (CH-11) induced apoptosis with kinase inhibitors, FACS sub-G1 nuclei, clone 5; details: clone 5, CH-11; SU 5402, AG 1295
Procedure: as §1
(§4) The cervix carcinoma cell line Hela S3 (ATCC CCL-2.2) was plated on 10 cm cell culture dishes (10^5 cells) in Ham's F12 growth medium containing 10% FCS. On the next day the medium was exchanged against medium without FCS supplemented with 100 ng/ml apoptosis activating anti-Fas antibody CH-11 (Coulter Immunotech). […]
(§5) 50000 cells per well obtained from the parental cell line Hela S3 or from the clones, respectively, were grown in a 12 well cell culture dish for 2 days in 2 ml Ham's F12 medium containing 10% FCS. […] The resutling cell nuclei were analyzed by FACS.
as §3, with “Nuclei were classified as apoptotic when a subdiploid signal between the G1/G0 peak and channel 10 was present.” left out

[3] = tested on: clone 20 (apoptosis-resistant Hela S3 clone); assay: Anti-Fas (CH-11) induced apoptosis with kinase inhibitors, FACS sub-G1 nuclei, clone 20; details: clone 20, 100 ng/ml CH-11, no FCS; SB 203580 10 μM, PD 98059 25 μM
Procedure: as §1, §4, §5
as §3, with “Nuclei were classified as apoptotic when a subdiploid signal between the G1/G0 peak and channel 10 was present.” left out

| SMILES | increase in apoptosis (Hela S3) | change in number of apoptotic cells / apoptosis rate (in words) [1] | increase in apoptosis [2] | change in apoptosis rate (in words) [3] | increase in apoptosis [1] |
| --- | --- | --- | --- | --- | --- |
| Cc1cc2ncc(-c3ccccc3)nc2cc1C [AG 1295] | about 30% | nearly in a doubling of the number of apoptotic cells | 30% | – | – |
| COc1cccc(-c2cc(=O)c3ccccc3o2)c1N [PD 98059] | – | doubling of the apoptosis rate | – | triples the apoptosis rate | – |
| C[S+]([O-])c1ccc(-c2nc(-c3ccncc3)c(-c3ccc(F)cc3)[nH]2)cc1 (centres unmarked) [SB 203580] | 25% | – | – | slight increase of apoptosis | 60% |
| Cc1c[nH]c(/C=C2\C(=O)Nc3ccccc32)c1CCC(=O)O [SU 5402] | about 50% | – | about 50% | – | ~300% |
